Here are results for nine cell lines from the supplement of paper PMC10307832.

What all share (test): relative viability (nuclei count vs DMSO), 5 days (fraction); higher = more cells survive
Compound in test [1]: C1=CC2=C(C=C(C(=C2N=C1)O)N=NC3=CC4=C(C=C3)C=C(C=C4)S(=O)(=O)O)S(=O)(=O)O + COc1cccc2cc(-c3nc([C@H]4CC[C@H](C(=O)O)CC4)n4ncnc(N)c34)[nH]c12 [OSI-027] (partner 0.5 µM)
Put shortly: (§1)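 After 5 days of treatment, lung cancer cells in 1536-well plates were fixed and stained in a single step (final 0.05% Triton X-100, 1% formaldehyde, 1 ug/ml Hoechst) and their nuclei counted on 4× images. Treatment had been applied by pin tool the day after seeding as one drug alone or as a fixed anchor-drug dose with five library-drug doses (not always all listed) in √10 steps. Relative viability is the nuclei count of treated wells divided by that of vehicle wells, and values are medians of duplicate plates.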

Compound in test [2]: C1=CC2=C(C=C(C(=C2N=C1)O)N=NC3=CC4=C(C=C3)C=C(C=C4)S(=O)(=O)O)S(=O)(=O)O + NC(=O)Nc1cc(-c2cccc(F)c2)sc1C(=O)N[C@H]1CCCNC1 [AZD7762] (partner 0.2 µM)
A digest of the protocol: as §1

Compound in test [3]: C1=CC2=C(C=C(C(=C2N=C1)O)N=NC3=CC4=C(C=C3)C=C(C=C4)S(=O)(=O)O)S(=O)(=O)O + Cc1cc(Nc2cc(N3CCN(C)CC3)nc(Sc3ccc(NC(=O)C4CC4)cc3)n2)n[nH]1 [Tozasertib] (partner 0.1 µM)
A digest of the protocol:
as §1

Compound in the test “AT-7519 + Alpelisib”: O=C(NC1CCNCC1)c1n[nH]cc1NC(=O)c1c(Cl)cccc1Cl [AT-7519] + Cc1nc(NC(=O)N2CCC[C@H]2C(N)=O)sc1-c1ccnc(C(C)(C)C(F)(F)F)c1 [Alpelisib] (partner 2 µM)
A digest of the protocol:
as §1

In the case of NCI-H1648, the relative viability in test [1] (first compound 0.08 µM) was found to be 0.259; in test [1] (first compound 0.253 µM) it was 0.251; in test [1] (first compound 0.8 µM), 0.263; in test [1] (first compound 2.53 µM) it was 0.253; in test [1] (first compound 8 µM) it was 0.185; in test [2] (first compound 0.253 µM), 0.712. Moreover, the relative viability in test [2] (first compound 8 µM) amounted to 0.717; in test [3] (first compound 0.08 µM) it was 0.432; in test [3] (first compound 0.253 µM), 0.422; in test [3] (first compound 0.8 µM) it was 0.615; in test [3] (first compound 2.53 µM), 0.533; in test [3] (first compound 8 µM), 0.507.
As for SK-MES-1, the relative viability in test [1] (first compound 0.08 µM) came out at 0.69; in test [1] (first compound 0.253 µM), 0.633; in test [1] (first compound 0.8 µM), 0.588; in test [1] (first compound 2.53 µM) it was 0.681; in test [1] (first compound 8 µM), 0.661; with AT-7519 + Alpelisib (first compound 0.01 µM) it was 0.839. Also, the relative viability is 0.699 in the test with AT-7519 + Alpelisib (first compound 0.03162 µM); 0.86 with AT-7519 + Alpelisib (first compound 0.3162 µM); 0.397 with AT-7519 + Alpelisib (first compound 1 µM); 1.01 in test [3] (first compound 0.08 µM); 0.888 in test [3] (first compound 0.253 µM); 0.804 in test [3] (first compound 0.8 µM). Besides, the relative viability in test [3] (first compound 2.53 µM) was found to be 0.924; in test [3] (first compound 8 µM), 0.935.
In the case of HCC-366, the relative viability came out at 0.989 in test [1] (first compound 0.08 µM); 0.932 in test [1] (first compound 0.253 µM); 0.89 in test [1] (first compound 0.8 µM); 0.861 in test [1] (first compound 2.53 µM); 0.948 in test [1] (first compound 8 µM); 0.362 in the test with AT-7519 + Alpelisib (first compound 0.01 µM). For the same cell line, the relative viability in the test with AT-7519 + Alpelisib (first compound 0.03162 µM) came to 0.347; with AT-7519 + Alpelisib (first compound 0.3162 µM), 0.514; with AT-7519 + Alpelisib (first compound 1 µM) it was 0.228; in test [2] (first compound 0.08 µM), 0.291; in test [2] (first compound 0.253 µM) it was 0.273; in test [2] (first compound 0.8 µM) it was 0.26. Moreover, the relative viability in test [2] (first compound 2.53 µM) came out at 0.272; in test [2] (first compound 8 µM) it was 0.291; in test [3] (first compound 0.08 µM) it was 0.152; in test [3] (first compound 0.253 µM) it was 0.0806; in test [3] (first compound 0.8 µM) it was 0.188; in test [3] (first compound 2.53 µM), 0.113. In addition, the relative viability in test [3] (first compound 8 µM) came out at 0.125.
Turning to 201T, the relative viability in test [1] (first compound 0.08 µM) was determined as 0.804; in test [1] (first compound 0.253 µM) it was 0.687; in test [1] (first compound 0.8 µM) it was 0.684; in test [1] (first compound 2.53 µM), 0.761; in test [1] (first compound 8 µM), 0.735; in the test with AT-7519 + Alpelisib (first compound 0.01 µM) it was 0.972. For the same cell line, the relative viability is 1.05 with AT-7519 + Alpelisib (first compound 0.03162 µM); 1.02 with AT-7519 + Alpelisib (first compound 0.3162 µM); 1.09 with AT-7519 + Alpelisib (first compound 1 µM); 0.691 in test [2] (first compound 0.08 µM); 0.652 in test [2] (first compound 0.253 µM); 0.56 in test [2] (first compound 0.8 µM). The relative viability in test [2] (first compound 2.53 µM) amounted to 0.632; in test [2] (first compound 8 µM) it was 0.634; in test [3] (first compound 0.08 µM) it was 1.03; in test [3] (first compound 0.253 µM) it was 0.901; in test [3] (first compound 0.8 µM) it was 0.987; in test [3] (first compound 2.53 µM), 0.967. Besides, the relative viability in test [3] (first compound 8 µM) amounted to 0.934.
For the cell line HCC-827, the relative viability in test [1] (first compound 0.08 µM) was 0.804; in test [1] (first compound 0.253 µM) it was 0.764; in test [1] (first compound 0.8 µM), 0.754; in test [1] (first compound 2.53 µM), 0.798; in test [1] (first compound 8 µM) it was 0.843; with AT-7519 + Alpelisib (first compound 0.01 µM), 1.03. For the same cell line, the relative viability is 0.999 with AT-7519 + Alpelisib (first compound 0.03162 µM); 1.02 with AT-7519 + Alpelisib (first compound 0.3162 µM); 0.708 in the test with AT-7519 + Alpelisib (first compound 1 µM); 0.184 in test [2] (first compound 0.08 µM); 0.279 in test [2] (first compound 0.253 µM); 0.235 in test [2] (first compound 0.8 µM). For the same cell line, the relative viability in test [2] (first compound 2.53 µM) amounted to 0.192; in test [2] (first compound 8 µM), 0.246; in test [3] (first compound 0.08 µM) it was 0.448; in test [3] (first compound 0.253 µM) it was 0.397; in test [3] (first compound 0.8 µM) it was 0.418; in test [3] (first compound 2.53 µM), 0.448. The relative viability in test [3] (first compound 8 µM) was found to be 0.432.
Take NCI-H647: the relative viability is 0.68 in test [1] (first compound 0.08 µM); 0.636 in test [1] (first compound 0.253 µM); 0.603 in test [1] (first compound 0.8 µM); 0.75 in test [1] (first compound 2.53 µM); 0.73 in test [1] (first compound 8 µM); 1.13 in the test with AT-7519 + Alpelisib (first compound 0.01 µM). The relative viability came to 1.07 with AT-7519 + Alpelisib (first compound 0.03162 µM); 0.967 with AT-7519 + Alpelisib (first compound 0.3162 µM); 0.53 with AT-7519 + Alpelisib (first compound 1 µM); 0.473 in test [2] (first compound 0.08 µM); 0.321 in test [2] (first compound 0.253 µM); 0.513 in test [2] (first compound 0.8 µM). The relative viability amounted to 0.471 in test [2] (first compound 2.53 µM); 0.345 in test [2] (first compound 8 µM); 0.49 in test [3] (first compound 0.08 µM); 0.279 in test [3] (first compound 0.253 µM); 0.308 in test [3] (first compound 0.8 µM); 0.231 in test [3] (first compound 2.53 µM). In addition, the relative viability in test [3] (first compound 8 µM) came to 0.267.
As to NCI-H2023, the relative viability in test [1] (first compound 0.08 µM) stood at 0.434; in test [1] (first compound 0.253 µM), 0.431; in test [1] (first compound 0.8 µM) it was 0.454; in test [1] (first compound 2.53 µM) it was 0.367; in test [1] (first compound 8 µM), 0.552; with AT-7519 + Alpelisib (first compound 0.01 µM), 0.648. Further, the relative viability with AT-7519 + Alpelisib (first compound 0.03162 µM) stood at 0.711; with AT-7519 + Alpelisib (first compound 0.3162 µM), 0.498; with AT-7519 + Alpelisib (first compound 1 µM), 0.3; in test [3] (first compound 0.08 µM), 0.398; in test [3] (first compound 0.253 µM), 0.311; in test [3] (first compound 0.8 µM), 0.411. The relative viability in test [3] (first compound 2.53 µM) stood at 0.347; in test [3] (first compound 8 µM) it was 0.36.
Regarding NCI-H520, the relative viability in test [1] (first compound 0.08 µM) was 0.215; in test [1] (first compound 0.253 µM) it was 0.219; in test [1] (first compound 0.8 µM), 0.201; in test [1] (first compound 2.53 µM), 0.274; in test [1] (first compound 8 µM) it was 0.22; with AT-7519 + Alpelisib (first compound 0.01 µM), 0.81. In addition, the relative viability with AT-7519 + Alpelisib (first compound 0.03162 µM) was 0.847; with AT-7519 + Alpelisib (first compound 0.3162 µM), 0.884; with AT-7519 + Alpelisib (first compound 1 µM) it was 0.478; in test [3] (first compound 0.08 µM) it was 0.428; in test [3] (first compound 0.253 µM) it was 0.454; in test [3] (first compound 0.8 µM), 0.439. Also, the relative viability in test [3] (first compound 2.53 µM) came to 0.369; in test [3] (first compound 8 µM), 0.42.
For the cell line RERF-LC-KJ, the relative viability in test [1] (first compound 0.08 µM) was found to be 0.664; in test [1] (first compound 0.253 µM), 0.624; in test [1] (first compound 0.8 µM), 0.593; in test [1] (first compound 2.53 µM), 0.608; in test [1] (first compound 8 µM), 0.588; with AT-7519 + Alpelisib (first compound 0.01 µM), 0.787. Further, the relative viability was 0.718 with AT-7519 + Alpelisib (first compound 0.03162 µM); 0.768 with AT-7519 + Alpelisib (first compound 0.3162 µM); 0.537 with AT-7519 + Alpelisib (first compound 1 µM); 0.945 in test [2] (first compound 0.08 µM); 0.949 in test [2] (first compound 0.253 µM); 0.924 in test [2] (first compound 0.8 µM). Moreover, the relative viability is 1.03 in test [2] (first compound 2.53 µM); 0.552 in test [2] (first compound 8 µM); 0.506 in test [3] (first compound 0.08 µM); 0.601 in test [3] (first compound 0.253 µM); 0.512 in test [3] (first compound 0.8 µM); 0.519 in test [3] (first compound 2.53 µM). Moreover, the relative viability in test [3] (first compound 8 µM) amounted to 0.509.
